Data as given in patent publication US20130178616A1, “USE OF MODIFIED OLIGO-B-(1,3)-GLUCANES FOR TREATING DISEASES OF THE IMMUNE SYSTEM OLIGO-B-(1,3V-GLUCANE-(1,3)-MANNOSE, OLIGO-B-(1,3)-GLUCANE-(1,3)-MANNITOL AND DERIVATIVES THEREOF, METHODS FOR PREPARING THE SAME AND DRUGS CONTAINING THEM” (ASE & BIO., priority 2006, published 2013).

Legend:
Assay type in all cases: in vivo, Balb/c mice
peritoneal cells [1] = assay: Phagocytosis of HEMA particles by cells obtained from the peritoneal cavity after injection of the oligosaccharide; conditions: 100 μg/mouse intraperitoneal, after 24 hours, control PBS, cells with at least six HEMA particles positive, FIG. 2
Experimental: (§1) The control used is PBS. The dosages used are 100 μg/mouse.
One or other of a control, LAM7, LAM5, A0 or A2 were injected, by intraperitoneal route, into a group of Balb/c mice (Jackson laboratory, Bar Harbor, Me., USA).
After 24 hours, the mice were sacrificed, the peritoneal cells were collected in a Hanks medium (Sigma).
After counting of the cells in a haemocytometer, the peritoneal cells were diluted to 1×10^7 in an RPMI 1640 medium (Sigma) with 5% foetal calf serum (Hyclone, Logan, Utah, USA). 2×10^6 cells in 0.2 ml of RPMI 1640 medium with 5% foetal calf serum added were mixed with the same volume of HEMA particles (5×10^8/ml).
The suspension was incubated for 60 minutes at 37° C. under occasional moderate stirring. The incubation was stopped by centrifugation (150 g for 5 minutes) and the pellet was replaced in suspension.
The macrophages with ingested particles were counted under an optical microscope in smears stained with Accustain (modified Wright stain, Sigma).
The cells surrounding at least six particles were considered as being positive.

peritoneal cells [2] = assay: Differential count in the peritoneal cells; conditions: 100 μg/mouse, same groups as Example 8; Giemsa staining; control PBS; FIG. 4
Experimental: as §1
By using the same experimental groups as in Example 8, two additional microscope slides of each experimental sample were prepared. After Giemsa staining, the presence of individual types of cells i.e. macrophages, lymphocytes and mastocytes were evaluated for each slide with an optical microscope.

peripheral blood cells [3] = assay: Phagocytosis of HEMA particles by peripheral blood cells after injection of the oligosaccharide; conditions: 100 μg/mouse by peritoneal route, 24 hours after injection, control PBS, cells with at least three HEMA particles positive, FIG. 1
Experimental: as §1
(§2) One or other of a control, LAM5, LAM7, A0 or A2O were injected, by peritoneal route, into a group of Balb/c mice (Jackson laboratory, Bar Harbor, Me., USA). 24 hours after the injection the mice were sacrificed. The peripheral blood was recovered from the orbital plexus in heparin (5 IU/ml) (Sigma).
After counting, a test for phagocytosis of HEMA particles (synthetic microspheres prepared from 2-hydroxyethylmethacrylate copolymer) was carried out as described in: Rembaum et al., 1976, Vetvicka et al. 1982, Bilej et al., 1989. 0.1 ml of heparinized fresh blood was added to 0.05 ml of diluted HEMA particles (5×10^8/ml) and incubated for 60 minutes at 37° C. under occasional moderate stirring.
At the end of the incubation, the cell suspension was smeared onto microscope slides. The smears were evaluated under an optical microscope after Giemsa staining.
Cells surrounding at least three particles were considered to be positive.

peripheral blood cells [4] = assay: Differential count in the blood; conditions: 100 μg/mouse, same groups as Example 8; Giemsa staining; control PBS; FIG. 3
Experimental: as §1, §2
By using the same experimental groups as in Example 8, two additional microscope slides were prepared from each experimental sample. After Giemsa staining, the presence of individual types of cells i.e. monocytes, lymphocytes and granulocytes were evaluated for each slide with an optical microscope.

OC[C@H]1O[C@@H](O[C@@H]2[C@@H](O)[C@H](O[C@@H]3[C@@H](O)[C@H](O[C@@H]4[C@@H](O)[C@H](O[C@@H]5[C@@H](O)[C@H](O[C@@H]6[C@H](O)[C@H](O)O[C@H](CO)[C@H]6O)O[C@H](CO)[C@H]5O)O[C@H](CO)[C@H]4O)O[C@H](CO)[C@H]3O)O[C@H](CO)[C@H]2O)[C@H](O)[C@@H](O)[C@@H]1O [Product A2, β-D-glucopyranosyl-(1→3)-β-D-glucopyranosyl-(1→3)-β-D-glucopyranosyl-(1→3)-β-D-glucopyranosyl-(1→3)-β-D-glucopyranosyl-(1→3)-β-D-mannopyranose]
phagocytosis in the granulocytes of peritoneal macrophages (peritoneal cells [1]): strongly stimulate phagocytosis | phagocytosis in the monocytes of peritoneal macrophages (peritoneal cells [1]): strongly stimulate phagocytosis | number of granulocytes in the peritoneal cavity (peritoneal cells [2]): increase the number | number of monocytes in the peritoneal cavity (peritoneal cells [2]): increase the number | phagocytosis in the granulocytes (peripheral blood cells [3]): strongly stimulate phagocytosis | phagocytosis in the monocytes (peripheral blood cells [3]): strongly stimulate phagocytosis | number of granulocytes in the peripheral blood (peripheral blood cells [4]): increase the number | number of monocytes in the peripheral blood (peripheral blood cells [4]): increase the number
